Read-outs that look alike come from different tables or passages of the source.
How the values were obtained:
[1] = system: MV-4-11; test: CCK-8 proliferation, MV-4-11; format: cell-based, Human; conditions: Homo sapiens, MV4-11; CCK-8; 72 or 96 hours; read-out: Inhibitory activity (IC50) on tumor cell proliferation, MV-4-11
Method: (§1) The tumor cells used herein were cultured in a cell culture medium listed in table A1 at 37°C in an incubator with 5% CO2. Prior to experimentation, all cell lines used were correctly identified by STR profiling, and tested negative for mycoplasma contamination using a mycoplasma detection kit through routine screenings. Table A1. Tumor cells and cell culture medium used in the present disclosure
(§2) IC50 values of the compounds of the present disclosure (including the compounds in Table 1, and compounds of examples) were measured using the Meilun Cell Counting Kit-8 kit from Dalian Meilun Biotech Co., Ltd. Assay details are as follows: tumor cells were seeded in a 96-well plate at a density listed in Table A2. After 24h, 100 µL of the inoculated cells were treated with 0.5µL of the compounds of the present disclosure (including the compounds in Tables 1 and 2, and compounds of examples) at 10 different successively decreasing concentrations (starting at the highest concentration of 10µM; 5-fold serial dilutions). After the cells were treated with the compounds of the present disclosure for a period of time, the cell viability detection reagent was added to the culture medium for cell viability assessment according to the instructions provided with the CCK-8 kit. […] The growth inhibition of the compounds of the present disclosure on cells was plotted by Prism Graphpad software, and the IC50 values of the compounds of the present disclosure were calculated therefrom. […] Seeding protocol and treatment time for tumor cells

[2] = system: SW620; test: CCK-8 proliferation, SW620; format: cell-based; conditions: Homo sapiens, SW-620; CCK-8; 96 hours; read-out: Inhibitory activity (IC50) on tumor cell proliferation, SW620
Method: as §1, §2

[3] = system: SR; test: CCK-8 proliferation, SR; format: cell-based, Human; conditions: Homo sapiens
Method in brief: (§3)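 Cells seeded, then after 24 h treated with 10 concentrations (top 10 µM, 5-fold serial dilution) for a line-specific time at 37°C, 5% CO2. Viability read by CCK-8; IC50 fitted from growth-inhibition curves.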

[4] = target: T1, FAK (Homo sapiens, UniProt Q05397); test: Western blot degradation of FAK; format: cell-based; conditions: Table D7
T1 construct: evaluate the effects of the compounds of the present disclosure on the expression of target proteins in cells; endogenous in cells
Method in brief: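 Quantification by ImageJ densitometry of Western blot bands: DC50 is the fitted concentration halving band intensity relative to DMSO. Percent remaining uses internal-control normalization, and degradation rate is its complement.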

[5] = target: T2, human Cereblon WT GST-tagged protein (Homo sapiens, UniProt Q96SW2); test: CRBN binding, HTRF (CEREBLON BINDING kit); conditions: Table II-2, CRBN binding screening, HTRF; for inhibition at 0.5 µM: read-out: Inhibition rate (%) at 0.5µM; for inhibition at 2 µM: read-out: Inhibition rate (%) at 2 µM
T2 construct: purchased CISBIO 64BDCRBNPEH
Method in brief: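 Competitive HTRF: GST-tagged human WT Cereblon mixed with compound, Thalidomide-Re tracer and GST Eu antibody, incubated 3 h at room temperature. Signals read at 620 and 665 nm.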

[6] = system: CCRF-CEM; test: CCK-8 proliferation, CCRF-CEM; format: cell-based, Human; conditions: Homo sapiens, CCRF-CEM; CCK-8; 96 hours; read-out: Inhibitory activity (IC50) on tumor cell proliferation, CCRF-CEM
Method in brief: as §3

[7] = system: H1975; test: CCK-8 proliferation, NCI-H1975 (H1975); format: cell-based, Human; conditions: Homo sapiens, NCI-H1975
Method in brief: as §3

[8] = system: H2228; test: CCK-8 proliferation, NCI-H2228 (H2228); format: cell-based; conditions: Homo sapiens, NCI-H2228; Table B6, compounds designed based on the ALK inhibitors; H2228 cells; read-out: Inhibitory activity (IC50, nM) on tumor cell proliferation, H2228
Method in brief: as §3

[9] = system: MDA-MB-231; test: CCK-8 proliferation, MDA-MB-231; format: cell-based; conditions: Homo sapiens; Table B6, compounds designed based on the ALK inhibitors; MDA-MB-231 cells; read-out: Inhibitory activity (IC50, nM) on tumor cell proliferation, MDA-MB-231
Method: as §1, §2

[10] = system: MCF7; test: CCK-8 proliferation, MCF7 (MCF-7); format: cell-based; conditions: Homo sapiens, MCF7; Table B6, compounds designed based on the ALK inhibitors; MCF-7 cells; read-out: Inhibitory activity (IC50, nM) on tumor cell proliferation, MCF-7
Method in brief: as §3

[11] = system: MM.1S; test: CCK-8 proliferation, MM.1S; format: cell-based; conditions: Homo sapiens, MM1.S; Table B6, compounds designed based on the ALK inhibitors; MM.1S cells; read-out: Inhibitory activity (IC50, nM) on tumor cell proliferation, MM.1S
Method in brief: as §3

[12] = SR, CCK-8, 72 hours, read-out: Inhibitory activity (IC50) on tumor cell proliferation, SR
[13] = Table B6, compounds designed based on the ALK inhibitors, SR cells, read-out: Inhibitory activity (IC50, nM) on tumor cell proliferation, SR
[14] = Table B6, compounds designed based on the ALK inhibitors, H1975 cells, read-out: Inhibitory activity (IC50, nM) on tumor cell proliferation, H1975

T2 sequence (Q96SW2 whole entry): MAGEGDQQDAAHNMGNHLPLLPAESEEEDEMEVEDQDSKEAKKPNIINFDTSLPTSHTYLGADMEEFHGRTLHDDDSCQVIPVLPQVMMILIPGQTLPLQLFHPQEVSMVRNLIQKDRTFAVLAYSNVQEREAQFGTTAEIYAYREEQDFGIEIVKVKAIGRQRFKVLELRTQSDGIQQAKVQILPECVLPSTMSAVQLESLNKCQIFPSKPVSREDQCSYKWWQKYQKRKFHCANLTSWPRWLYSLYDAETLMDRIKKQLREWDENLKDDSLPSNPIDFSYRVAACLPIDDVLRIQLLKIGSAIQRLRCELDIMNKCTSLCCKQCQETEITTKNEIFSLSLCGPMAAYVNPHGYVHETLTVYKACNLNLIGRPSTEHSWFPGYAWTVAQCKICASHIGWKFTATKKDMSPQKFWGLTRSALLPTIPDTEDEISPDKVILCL
T1 sequence (Q05397 whole entry, species assumed): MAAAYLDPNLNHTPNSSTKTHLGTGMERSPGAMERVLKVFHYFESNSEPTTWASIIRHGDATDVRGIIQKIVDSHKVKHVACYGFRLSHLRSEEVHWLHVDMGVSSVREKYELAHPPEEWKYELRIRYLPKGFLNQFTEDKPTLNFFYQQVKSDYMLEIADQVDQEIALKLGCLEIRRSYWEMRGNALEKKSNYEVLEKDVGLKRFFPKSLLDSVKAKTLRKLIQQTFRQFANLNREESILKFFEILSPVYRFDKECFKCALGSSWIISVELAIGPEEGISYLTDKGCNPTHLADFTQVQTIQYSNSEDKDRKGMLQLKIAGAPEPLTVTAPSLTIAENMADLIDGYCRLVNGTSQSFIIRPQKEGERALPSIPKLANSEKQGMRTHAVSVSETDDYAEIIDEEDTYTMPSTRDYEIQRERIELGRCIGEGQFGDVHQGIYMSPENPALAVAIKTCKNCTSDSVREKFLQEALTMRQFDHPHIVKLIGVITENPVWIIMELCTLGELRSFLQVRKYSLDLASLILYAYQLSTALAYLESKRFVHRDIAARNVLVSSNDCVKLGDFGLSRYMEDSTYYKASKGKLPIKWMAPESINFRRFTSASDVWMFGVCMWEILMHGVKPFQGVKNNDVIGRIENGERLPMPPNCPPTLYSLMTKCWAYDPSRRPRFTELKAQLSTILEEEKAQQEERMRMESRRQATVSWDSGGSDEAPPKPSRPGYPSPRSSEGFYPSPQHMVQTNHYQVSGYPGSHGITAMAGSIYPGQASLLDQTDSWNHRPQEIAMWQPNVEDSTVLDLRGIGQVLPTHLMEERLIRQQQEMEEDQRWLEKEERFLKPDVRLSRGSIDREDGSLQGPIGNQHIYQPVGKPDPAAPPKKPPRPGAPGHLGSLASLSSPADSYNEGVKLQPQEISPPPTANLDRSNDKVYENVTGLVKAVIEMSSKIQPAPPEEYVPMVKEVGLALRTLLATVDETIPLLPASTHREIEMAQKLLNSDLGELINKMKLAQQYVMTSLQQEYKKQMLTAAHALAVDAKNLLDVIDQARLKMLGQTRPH

IC50 [1] [µM]	IC50 [2] [µM]	inhibition at 0.5 µM [5] [%]	inhibition at 2 µM [5] [%]	IC50 [6] [µM]	IC50 ([7]; CCK-8, 96 hours, read-out: Inhibitory activity (IC50) on tumor cell proliferation, H1975) [nM]	IC50 [8] [nM]	IC50 [9] [nM]	IC50 [10] [nM]	IC50 [7, 14] [nM]	IC50 [11] [nM]	SMILES	IC50 [3, 12] [nM]	Degradation of substrate protein FAK (substrate protein remaining %) [4]	IC50 [3, 13] [nM]
0.1 to 0.5	0.5 to 1	10 to 20	60 to 80	0.5 to 1	–	–	–	–	–	–	CNC(=O)c1ccccc1Nc1cc(Nc2ccc(N3CCN(Cc4ccc(C5CCC(=O)NC5=O)cc4)CC3)cc2OC)ncc1C(F)(F)F (stereo not drawn) [GT-03715, 2-((2-((4-(4-(4-(2,6-dioxopiperidin-3-yl)benzyl)piperazin-1-yl)-2-methoxyphenyl)amino)-5-(trifluoromethyl)pyridin-4-yl)amino)-N-methylbenzamide]	100 to 500	A (A is defined as 0% ≤ substrate protein remaining % ≤ 80%)	–
0.1 to 0.5	0.5 to 1	30 to 40	40 to 53	–	500 to 1000	–	–	–	–	–	CNC(=O)c1ccccc1Nc1cc(Nc2ccc(N3CCN(Cc4ccc(C5CCC(=O)NC5=O)c(F)c4)CC3)cc2OC)ncc1C(F)(F)F (stereo not drawn) [GT-03717, 2-((2-((4-(4-(4-(2,6-dioxopiperidin-3-yl)-3-fluorobenzyl)piperazin-1-yl)-2-methoxyphenyl)amino)-5-(trifluoromethyl)pyridin-4-yl)amino)-N-methylbenzamide]	100 to 500	A (A is defined as 0% ≤ substrate protein remaining % ≤ 80%)	–
–	–	–	–	–	–	10 to 50	500 to 1000	500 to 1000	–	–	CCc1cc2c(cc1N1CCC(N3CCN(Cc4ccc(N5CCC(=O)NC5=O)c(F)c4)CC3)CC1)C(C)(C)c1[nH]c3cc(C#N)ccc3c1C2=O [GT-07308, 8-(4-(4-(4-(2,4-dioxotetrahydropyrimidin-1(2H)-yl)-3-fluorobenzyl)piperazin-1-yl)piperidin-1-yl)-9-ethyl-6,6-dimethyl-11-oxo-6,11-dihydro-5H-benzo[b]carbazole-3-carbonitrile]	–	–	10 to 50
–	–	–	–	–	–	10 to 50	100 to 500	100 to 500	100 to 500	100 to 500	COc1cc(N2CCC(N3CCN(Cc4ccc(C5CCC(=O)NC5=O)cc4)CC3)CC2)ccc1Nc1ncc(Cl)c(Nc2ccccc2P(C)(C)=O)n1 (stereo not drawn) [GT-07602, 3-(4-((4-(1-(4-((5-chloro-4-((2-(dimethylphosphoryl)phenyl)amino)pyrimidin-2-yl)amino)-3-methoxyphenyl)piperidin-4-yl)piperazin-1-yl)methyl)phenyl)piperidine-2,6-dione]	–	–	1 to 10
–	–	–	–	–	–	10 to 50	500 to 1000	100 to 500	100 to 500	500 to 1000	COc1cc(N2CCC(N3CCN(Cc4cccc(N5CCC(=O)NC5=O)c4)CC3)CC2)ccc1Nc1ncc(Cl)c(Nc2ccccc2P(C)(C)=O)n1 [GT-07604, 1-(3-((4-(1-(4-((5-chloro-4-((2-(dimethylphosphoryl)phenyl)amino)pyrimidin-2-yl)amino)-3-methoxyphenyl)piperidin-4-yl)piperazin-1-yl)methyl)phenyl)dihydropyr imidine-2,4(1H,3H)-dione]	–	–	1 to 10
–	–	–	–	–	–	50 to 100	100 to 500	100 to 500	100 to 500	500 to 1000	COc1cc(N2CCC(N3CCN(Cc4ccc(N5CCC(=O)NC5=O)cn4)CC3)CC2)ccc1Nc1ncc(Cl)c(Nc2ccccc2P(C)(C)=O)n1 [GT-07606, 1-(6-((4-(1-(4-((5-chloro-4-((2-(dimethylphosphoryl)phenyl)amino)pyrimidin-2-yl)amino)-3-methoxyphenyl)piperidin-4-yl)piperazin-1-yl)methyl)pyridin-3-yl)dihydropyrimidine-2,4(1H,3H)-dione]	–	–	1 to 10
–	–	–	–	–	–	10 to 50	100 to 500	100 to 500	100 to 500	–	COc1cc(N2CCC(N3CCN(Cc4ccc(N5CCC(=O)NC5=O)nc4)CC3)CC2)ccc1Nc1ncc(Cl)c(Nc2ccccc2P(C)(C)=O)n1 [GT-07607, 1-(5-((4-(1-(4-((5-chloro-4-((2-(dimethylphosphoryl)phenyl)amino)pyrimidin-2-yl)amino)-3-methoxyphenyl)piperidin-4-yl)piperazin-1-yl)methyl)pyridin-2-yl)dihydropyrimidine-2,4(1H,3H)-dione]	–	–	1 to 10
–	–	–	–	–	–	10 to 50	500 to 1000	100 to 500	100 to 500	500 to 1000	COc1cc(N2CCC(N(C)Cc3cccc(N4CCC(=O)NC4=O)c3)CC2)ccc1Nc1ncc(Cl)c(Nc2ccccc2P(C)(C)=O)n1 [GT-07616, 1-(3-(((1-(4-((5-chloro-4-((2-(dimethylphosphoryl)phenyl)amino)pyrimidin-2-yl)amino)-3-methoxyphenyl)piperidin-4-yl)(methyl)amino)methyl)phenyl)dihydropyrimidine-2,4(1H,3H)-dione]	–	–	1 to 10
–	–	–	–	–	–	100 to 500	500 to 1000	100 to 500	500 to 1000	100 to 500	COc1cc(N2CCC(N(C)Cc3cncc(N4CCC(=O)NC4=O)c3)CC2)ccc1Nc1ncc(Cl)c(Nc2ccccc2P(C)(C)=O)n1 [GT-07695, 1-(5-(((1-(4-((5-chloro-4-((2-(dimethylphosphoryl)phenyl)amino)pyrimidin-2-yl)amino)-3-methoxyphenyl)piperidin-4-yl)(methyl)amino)methyl)pyridin-3-yl)dihydropyrimidine-2,4(1H,3H)-dione]	–	–	10 to 50
–	–	–	–	–	–	100 to 500	500 to 1000	500 to 1000	500 to 1000	500 to 1000	CCc1cc2c(cc1N1CCC(N3CCN(Cc4cncc(N5CCC(=O)NC5=O)c4)CC3)CC1)C(C)(C)c1[nH]c3cc(C#N)ccc3c1C2=O [GT-07702, 8-(4-(4-((5-(2,4-dioxotetrahydropyrimidin-1(2H)-yl)pyridin-3-yl)methyl)piperazin-1-yl)piperidin-1-yl)-9-ethyl-6,6-dimethyl-11-oxo-6,11-dihydro-5H-benzo[b]carbazole-3-carbonitrile]	–	–	1 to 10
–	–	–	–	–	–	50 to 100	500 to 1000	500 to 1000	–	–	CCc1cc2c(cc1N1CCC(N3CCN(Cc4cc(C5CCC(=O)NC5=O)cnc4F)CC3)CC1)C(C)(C)c1[nH]c3cc(C#N)ccc3c1C2=O (stereo not drawn) [GT-07703, 8-(4-(4-((5-(2,6-dioxopiperidin-3-yl)-2-fluoropyridin-3-yl)methyl)piperazin-1-yl)piperidin-1-yl)-9-ethyl-6,6-dimethyl-11-oxo-6,11-dihydro-5H-benzo[b]carbazole-3-carbonitrile]	–	–	1 to 10
–	–	–	–	–	–	100 to 500	500 to 1000	–	–	–	COc1cc(N2CCN(Cc3ccc(C4CCC(=O)NC4=O)cn3)CC2)ccc1Nc1ncc(Cl)c(Nc2ccccc2P(C)(C)=O)n1 (stereo not drawn) [GT-07713, 3-(6-((4-(4-((5-chloro-4-((2-(dimethylphosphoryl)phenyl)amino)pyrimidin-2-yl)amino)-3-methoxyphenyl)piperazin-1-yl)methyl)pyridin-3-yl)piperidine-2,6-dione]	–	–	10 to 50

— EP4678638A1, “NEW E3 UBIQUITIN LIGASE LIGAND, PROTEIN DEGRADATION AGENT AND USE THEREOF” (priority 2023, dated 2024)
